Results as given in patent US10703761B2, “Bile acid receptor modulators and methods of use thereof” (City of Hope, priority 2016, dated 2020).
Entries after “also recorded” stand apart in the source; their conditions may differ.

Tests used:
FXR [1] = molecular target: T1, FXR (Homo sapiens, UniProt Q96RI1); assay: GeneBLAzer cell-based FXR transactivation assay (FXR-UAS-bla HEK 293T cells)
T1 construct: the Gal4 DBD was fused to the LBD of FXR in this assay
T1 sequence (Q96RI1 262-486 limits assumed): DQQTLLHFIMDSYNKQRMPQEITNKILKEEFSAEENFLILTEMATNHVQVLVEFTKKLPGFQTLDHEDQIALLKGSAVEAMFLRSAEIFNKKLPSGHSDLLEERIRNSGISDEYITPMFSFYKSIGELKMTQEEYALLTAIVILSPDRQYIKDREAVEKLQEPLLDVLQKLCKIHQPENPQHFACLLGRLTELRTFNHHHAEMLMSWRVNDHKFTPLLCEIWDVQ
Protocol: To investigate the cellular activities of the novel berberine derivatives, we used a GeneBLAzer FXR cell-based assay, which detects the levels of a β-lactamase reporter controlled by a promoter containing the binding site of the DNA binding domain (DBD) of the GAL4 transcription factor; the Gal4 DBD was fused to the LBD of FXR in this assay. In typical test for agonists, DMSO (vehicle and negative control), 10 μM GW4064 (positive control), and titrations of GW4064, LCA or the 24 newly synthesized novel berberien derivatives analogs were mixed with GeneBLAzer FXR-UAS-bla HEK 293T cells. Reporter assays were performed after a 16 h incubation. […] For the experiments to evaluate the antagonistic activity, titrations of compounds were tested in the presence of 400 nM GW4064. […]
FXR transactivation assay was performed using GeneBLAzer FXR-UAS-bla HEK 293T cells (Invitrogen) as previously described with minor modifications. […] Plates were then incubated in the dark for 90 min at room temperature before measuring the fluorescent emissions at 460 nm and 535 nm (using excitation at 400 nm) with an Envision plate reader with bottom read capacity. […] The % Activation was calculated using Eq. 2.
[formula] […] The % Inhibition was calculated using Eq. 3. […]

FXR [2] = molecular target: T2, FXR (Homo sapiens, UniProt Q96RI1); assay: FXR luciferase reporter assay, transient transfection with a synthetic FXR responsive reporter plasmid in HEK293 cells; format: cell-based
T2 construct: expressed in transfected cells; host or cells: HEK293 (transient)
T2 sequence (Q96RI1 1-486): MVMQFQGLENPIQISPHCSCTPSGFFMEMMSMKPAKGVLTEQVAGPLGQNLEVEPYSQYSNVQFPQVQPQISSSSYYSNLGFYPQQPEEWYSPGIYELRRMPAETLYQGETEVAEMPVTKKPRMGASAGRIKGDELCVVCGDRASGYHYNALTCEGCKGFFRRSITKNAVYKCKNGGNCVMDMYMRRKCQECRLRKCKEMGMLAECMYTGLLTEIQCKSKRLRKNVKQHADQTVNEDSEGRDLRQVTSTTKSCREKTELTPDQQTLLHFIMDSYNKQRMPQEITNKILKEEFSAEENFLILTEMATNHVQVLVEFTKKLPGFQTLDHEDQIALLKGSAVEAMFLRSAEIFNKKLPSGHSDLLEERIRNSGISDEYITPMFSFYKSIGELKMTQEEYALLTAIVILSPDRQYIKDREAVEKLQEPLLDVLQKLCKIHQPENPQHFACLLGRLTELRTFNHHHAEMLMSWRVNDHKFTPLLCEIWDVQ
T2 sequence (P19793 1-462 partner): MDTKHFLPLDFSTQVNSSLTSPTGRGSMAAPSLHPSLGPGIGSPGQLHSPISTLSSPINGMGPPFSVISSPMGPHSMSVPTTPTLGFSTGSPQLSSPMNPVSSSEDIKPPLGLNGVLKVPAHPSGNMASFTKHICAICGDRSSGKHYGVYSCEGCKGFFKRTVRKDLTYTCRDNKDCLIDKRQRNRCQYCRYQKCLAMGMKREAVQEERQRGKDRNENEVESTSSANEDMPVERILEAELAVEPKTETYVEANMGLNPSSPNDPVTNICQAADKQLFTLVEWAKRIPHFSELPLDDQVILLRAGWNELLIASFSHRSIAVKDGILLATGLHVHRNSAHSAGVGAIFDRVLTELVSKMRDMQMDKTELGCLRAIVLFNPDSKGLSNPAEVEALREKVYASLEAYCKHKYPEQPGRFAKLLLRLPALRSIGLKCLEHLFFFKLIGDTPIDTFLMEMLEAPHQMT
Protocol: Effect of berberine derivatives and γ-aminobutyric acid derivative on FXR inhibition was initially assessed using transient transfections with a synthetic FXR responsive reporter plasmid. HEK 293 Cells were treated with vehicle alone or 100 μM CDCA with or without compounds, as indicated. Results are luciferase expression normalized using the β-gal internal control.
TGR5-reporting activity was evaluated by luciferase assay. Treatments were performed in quadruplicate and normalized with β-galactosidase. HEK293 cells were transfected with FXR and RXRα, and FXRE-containing luciferase construct. Cells were treated with 10 μM of indicated compounds; luciferase was measured and normalized with β-galactosidase.
To evaluate TGR5 activity of compounds, cells were transfected 100 ng pCRE-luc reporter along with pCMV-galactosidase (10 ng) as an internal control for normalization of transfection efficiency. Plasmids were complexed with […] of Fugene 6 reagent (Promega, Madison, Wis.) in OptiMEM (Invitrogen, Carlsbad, Calif.) and cells were transfected for 18 h. The following day, cells were treated with vehicle and appropriate ligand as indicated. Luciferase and β-galactosidase activities were assayed 6 h later using Luciferase Assay System (Promega) and Galacto-Star (Applied Biosystems, Foster City, Calif.) reagents, respectively, and a MLX luminometer (Dynex Technologies, Chantilly, Va.). To evaluate the FXR activity of compounds, HEK293 cells were transfected with 25 ng of farnesoid X receptor expression plasmid (pCMX-hFXR), 25 ng of retinoid X receptor expression plasmid (pCMXhRXR), 100 ng of reporter plasmid (pEcREx6-TK-Luc), and 10 ng of pCMV-b-galactosidase as an internal control in each well, using Fugene 6 reagent. Approximately 18 h after transfection, cells were incubated for 12 h with different concentrations of each.

| Structure (SMILES) | FXR antagonist activity in cell-based FXR transactivation assay (FXR [1]) | melting point [°C] | Inhibition of FXR activation by CDCA (FXR antagonism) (FXR [2]; CDCA 100 μM, compounds 10 μM) | FXR activity of compound alone (agonism) (FXR [2]; compound alone, compared with GW4064) |
| --- | --- | --- | --- | --- |
| COc1ccc2cc3[n+](cc2c1NCCc1ccc(O)c(O)c1)CCc1cc2c(cc1-3)OCO2 [DY322, Berberine-Dopamine Hybrid] | identified as FXR antagonists | 198.4 | – | – |
| O=C(O)CCCN1C(=O)c2ccccc2C1=O [DY419] | – | – | strongly inhibited FXR activation; also recorded: activated FXR receptor to exert FXR antagonistic biological function | no effect on FXR activity |
| COc1ccc2cc3[n+](cc2c1NCc1cccc(B(O)O)c1)CCc1cc2c(cc1-3)OCO2 [DY323, Berberine-Phenylboronic Hybrid] | identified as FXR antagonists | 228.7 | – | – |
